Test results taken from PMC2823940 (Bioorganic chemistry, 2009).
Entries after “also recorded” stand apart in the source; their conditions may differ.

How the values were obtained:
HpAgD [1] = target: T1, HpAgD (Helicobacter pylori, UniProt O24890); assay: Metal inhibition of HpAgD; type: biochemical; conditions: 15 min pre-incubation with metal ion, 5.0 mM agmatine
Wild Type HpAgD = target: T2, Wild Type HpAgD (Helicobacter pylori, UniProt O24890); assay: HpAgD activity assay; conditions: for ability to serve as HpAgD substrate: known PAD substrates
T2 sequence (O24890 1-330): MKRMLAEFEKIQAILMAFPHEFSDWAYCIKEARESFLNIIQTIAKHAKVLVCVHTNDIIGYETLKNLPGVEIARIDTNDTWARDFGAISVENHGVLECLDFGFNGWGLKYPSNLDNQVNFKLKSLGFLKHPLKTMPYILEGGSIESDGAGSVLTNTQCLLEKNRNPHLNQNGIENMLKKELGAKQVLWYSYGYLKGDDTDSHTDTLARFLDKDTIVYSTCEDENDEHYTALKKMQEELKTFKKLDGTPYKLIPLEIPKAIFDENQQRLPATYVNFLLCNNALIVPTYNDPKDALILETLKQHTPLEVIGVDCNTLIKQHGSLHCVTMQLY

N=C(N)NCCCCN = assay: purified protein, by the assay type; conditions: other: steady state, D198A HpAgD; pH 8.0; 37.0 °C
HpAgD [2] = target: T1, HpAgD; assay: Determination of IC50 values against HpAgD; type: biochemical; conditions: for inhibition of HpAgD: concentrations as high as 500 μM
HpAgD [3] = target: T1, HpAgD; assay: Irreversibility of inactivation; type: biochemical; conditions: 1.0 mM inhibitor, 1 h at 37 °C, dialyzed 20 h
HpAgD [4] = target: T1, HpAgD; assay: Inactivation kinetics of HpAgD; type: biochemical
HpAgD [5] = target: T1, HpAgD; assay: Substrate protection experiments; type: biochemical; conditions: agmatine 0.5 vs 1.0 mM; ABFA 500 μM or ABCA 175 μM
HpAgD [6] = target: T1, HpAgD; assay: Site of inactivator modification; conditions: 5 eq. inactivator, 30 min, tryptic digest
PAD4 = PAD4 (Homo sapiens, UniProt Q9UM07); assay: PAD4 inhibition; type: biochemical; conditions: for inhibition of PAD4: concentrations as high as 1 mM
[7] = Stability in aqueous buffer; type: physicochemical; conditions: not shown
[8] = target: Helicobacter pylori agmatine deiminase (HpAgD), untagged wild type (Helicobacter pylori) (UniProt O24890); assay: SEC
D198A HpAgD = type: biochemical, Helicobacter pylori
[9] = substrate: N=C(N)NCCCCN; assay: purified protein, by the assay type; conditions: other: steady state, Wild Type HpAgD, pH 8.0, 37 °C
[10] = read-out: IC50 HpAgD, 15 min pre-incubation, 0.5 mM Agmatine

PAD4, sequence (Q9UM07 whole entry): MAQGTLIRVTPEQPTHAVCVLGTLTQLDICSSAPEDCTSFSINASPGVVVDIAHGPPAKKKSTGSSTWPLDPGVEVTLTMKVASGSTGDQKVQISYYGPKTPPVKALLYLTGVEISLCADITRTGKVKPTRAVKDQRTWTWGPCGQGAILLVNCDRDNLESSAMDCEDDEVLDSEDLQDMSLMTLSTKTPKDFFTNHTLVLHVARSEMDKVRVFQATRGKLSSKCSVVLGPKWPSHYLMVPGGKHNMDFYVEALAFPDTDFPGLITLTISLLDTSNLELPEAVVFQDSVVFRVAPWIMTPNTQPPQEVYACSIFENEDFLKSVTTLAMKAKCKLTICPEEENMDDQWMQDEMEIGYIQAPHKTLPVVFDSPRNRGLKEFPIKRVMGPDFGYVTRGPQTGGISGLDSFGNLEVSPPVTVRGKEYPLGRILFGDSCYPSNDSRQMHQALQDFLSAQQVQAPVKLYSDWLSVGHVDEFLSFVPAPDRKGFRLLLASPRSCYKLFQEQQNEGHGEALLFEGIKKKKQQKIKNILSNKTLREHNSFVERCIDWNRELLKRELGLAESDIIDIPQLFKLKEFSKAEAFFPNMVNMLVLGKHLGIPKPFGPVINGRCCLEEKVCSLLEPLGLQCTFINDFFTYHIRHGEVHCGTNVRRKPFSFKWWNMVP

Molecule `[Co+2]` [Co^2+] has an IC50 (HpAgD [1]) of 13 ± 5.5 µM.

For `CCOC(=O)[C@H](CCCN=C(N)N)NC(=O)c1ccccc1` [BAEE, N-α-Benzoyl-L-arginine ethyl ester], the “ability to serve as HpAgD substrate” value (Wild Type HpAgD) was “none of these compounds served as a substrate”.

Work on “D198A HpAgD (Helicobacter pylori 26695; D198A)” yielded a Km (N=C(N)NCCCCN) of 170 ± 79.8 µM, a kcat (N=C(N)NCCCCN) of 0.00467 s⁻¹ and a kcat/Km (N=C(N)NCCCCN) of 28.3 M⁻¹ s⁻¹.

Work on `[Zn+2]` [Zn^2+] yielded an IC50 (HpAgD [1]) of 30 ± 3 µM.

For “Ac-SGRGK-COO^− (Ac-SGRGK-OH; UniProt P62805 2-6, looked up, fragment) [Ac-H4-5]”, the “ability to serve as HpAgD substrate” value (Wild Type HpAgD) was “none of these compounds served as a substrate”.

In the case of `COC(=O)[C@H](CCCNC(=N)N)NC(=O)c1ccccc1` [BAME, N-α-Benzoyl-L-arginine methyl ester], the “ability to serve as HpAgD substrate” value (Wild Type HpAgD) is reported as “none of these compounds served as a substrate”.

Molecule `[Ni+2]` [Ni^2+] has an IC50 (HpAgD [1]) of 100 ± 3.9 µM.

In the case of `NC(=O)[C@H](CCCN=C(N)CCl)NC(=O)c1ccccc1` [Cl-amidine], the “inhibition of HpAgD” value (HpAgD [2]) is reported as “did not afford HpAgD inhibition” and the IC50 (HpAgD [2]; [10]) is reported as over 500 µM.

With `N=C(CF)NCCCCN` [ABFA, N-(4-aminobutyl)-2-fluoro-ethanimidamide] the “residual activity after dialysis (irreversibility)” value (HpAgD [3]) was “enzyme activity was not recovered; also recorded: irreversibly inhibit HpAgD”, the Ki (HpAgD [4]) was 530 ± 150 µM and the kinact/KI (HpAgD [4]) was 66.7 M⁻¹ s⁻¹. For the same molecule, the IC50 (HpAgD [2]) was 6.8 ± 0.26 µM, the “substrate protection against inactivation” value (HpAgD [5]) was “substrate can protect against enzyme inactivation” and the site of modification (HpAgD [6]) was “modifying Cys324”. The IC50 (PAD4) was over 1000 µM, the “inhibition of PAD4” value (PAD4) was “essentially no inhibition was observed” and the “stability in aqueous buffer” value [7] was “excellent stability”.

For `N=C(CCl)NCCCCN` [ABCA, N-(4-aminobutyl)-2-chloro-ethanimidamide], the “residual activity after dialysis (irreversibility)” value (HpAgD [3]) was “enzyme activity was not recovered; also recorded: irreversibly inhibit HpAgD”, the Ki (HpAgD [4]) was 1200 ± 234 µM and the kinact/KI (HpAgD [4]) was 208 M⁻¹ s⁻¹. For the same molecule, the IC50 (HpAgD [2]) was 0.87 ± 0.03 µM, the “substrate protection against inactivation” value (HpAgD [5]) was “substrate can protect against enzyme inactivation” and the site of modification (HpAgD [6]) was “modifying Cys324”. For the same molecule, the IC50 (PAD4) was over 1000 µM, the “inhibition of PAD4” value (PAD4) was “essentially no inhibition was observed” and the “stability in aqueous buffer” value [7] was “excellent stability”.

In the case of `NC(=O)[C@H](CCCN=C(N)N)NC(=O)c1ccccc1` [BAA, N-α-Benzoyl-L-arginine amide], the “ability to serve as HpAgD substrate” value (Wild Type HpAgD) is reported as “none of these compounds served as a substrate”.

Molecule “Helicobacter pylori agmatine deiminase (HpAgD), untagged wild type (from UniProt O24890 1-330) (enzyme)” has a stoichiometry N [8] of 2.

With `NCCCCN=C(N)N` [Agmatine] the “decrease in kcat, D198A vs wild type” value (D198A HpAgD) was 17 fold, the “increase in Km, D198A vs wild type” value (D198A HpAgD) was 5 fold and the “rate (kcat/Km) relative to all other substrates tested” value (Wild Type HpAgD; Wild Type HpAgD) was > 10^4 fold. The kcat (Wild Type HpAgD; steady state, Wild Type HpAgD, pH 8.0, 37 °C) was ~ 5 min^−1.

With `NC(=O)[C@H](CCCN=C(N)CF)NC(=O)c1ccccc1` [F-amidine] the “inhibition of HpAgD” value (HpAgD [2]) was “did not afford HpAgD inhibition” and the IC50 (HpAgD [2]; [10]) was over 500 µM.

B1: Wild Type HpAgD (Helicobacter pylori 26695) (protein)
chain: T2 sequence (O24890 1-330)
With B1 the Km [9] was 33 ± 8.8 µM, the kcat [9] was 0.0817 s⁻¹ and the kcat/Km [9] was 2450 M⁻¹ s⁻¹.
